Several values for one entry are separate records, joined by “and”; a condition that tells them apart may be missing. Equal values may be shown once. Read-outs that look alike come from different tables or passages of the source.
Key:
bovine brain tubulin = assay: Tubulin polymerization assay; format: biochemical; settings: for IC50: inhibition of tubulin polymerization, tubulin at 10 μM, read-out: Tubulin assembly IC50 ± SD; for fold less active than CA-4 in tubulin assembly: versus CA-4
Procedure: The assembly of purified bovine tubulin was monitored using a kit, BK006, purchased from Cytoskeleton Inc., (Denver, Colo., USA). The assay was carried out in accordance with the manufacturer's instructions using the standard assay conditions. […] Light is scattered proportionally to the concentration of polymerized microtubules in the assay. Therefore, tubulin assembly was monitored turbidimetrically at 340 nm in a Spectramax 340 PC spectrophotometer (Molecular Devices, Sunnyvale, Calif., USA). The concentration that inhibits tubulin polymerization by 50% (IC50) was determined using area under the curve (AUC). The AUC of the untreated controls were considered as 100% polymerization. The IC50 value for each compound was computed using GraphPad Prism Software.

HL-60 leukemia cells = assay: MTT cell viability assay, HL-60; format: cell-based, human; settings: Homo sapiens
Procedure: (§1) All the human tumour cell lines MCF-7, HCT-116, HL-60 and HeLa were cultured in Dulbecco's Modified Eagle's Medium (DMEM) with 10% fetal bovine serum, 2 mM L-glutamine and 100 µg/mL penicillin/streptomycin. Cells were maintained at 37° C. in 5% CO2 in a humidified incubator. All cells were sub-cultured 3 times/week by trypsinization using TrypLE Express (1×).
(§2) The quinoline compounds were evaluated for antiproliferative effect using the MTT viability assay of four cancer cell lines (MCF-7, HCT-116, HL-60 and HeLa) and normal breast cells MCF-10A to calculate the relative IC50 values for each compound. Cells were seeded in triplicate in 96-well plates at a density of 10×10^3 cells/ml in a total volume of 200 μl per well. 0.1% of DMSO was used as a vehicle control. After this time, they were treated with 2 μl test compound which had been pre-prepared as stock solutions in ethanol to furnish the concentration range of study, 1 nM to 50 μM, and re-incubated for a further 72 h. The culture medium was then removed, and the cells washed with 100 μL phosphate buffered saline (PBS) and 50 μL MTT added, to reach a final concentration of 1 mg/mL MTT added. Cells were incubated for 2 h in darkness at 37° C. At this point solubilisation was begun through the addition of […] DMSO and the cells maintained at room temperature in darkness for 20 min to ensure thorough colour diffusion before reading the absorbance. Plates were incubated for 72 hours at 37° C.+5% CO2, The MTT (5 mg/mL in PBS) was added and incubated for another 4 h, the optical density was detected with a microplate reader at 570 nm. Results were expressed as percentage viability relative to vehicle control (100%). Dose response curves were plotted and IC50 values (concentration of drug resulting in 50% reduction in cell survival) were obtained using the commercial software package Prism (GraphPad Software, Inc., La Jolla, Calif., USA). All the experiments were repeated in at least three independent experiments.

[1] = system: MCF-7 breast cancer cells; assay: MTT cell viability assay, MCF-7; format: cell-based, human; settings: Homo sapiens, MCF7, MCF-7, MTT
Procedure: as §1, §2

[2] = system: HCT-116 colon cancer cells; assay: MTT cell viability assay, HCT-116; format: cell-based, human; settings: Homo sapiens, HCT-116, MTT
Procedure: as §1, §2

[3] = system: HeLa cervical cancer cells; assay: MTT cell viability assay, HeLa; format: cell-based, human; settings: Homo sapiens
Procedure: as §1, §2

[4] = system: MCF-7, HL-60, HCT-116 and HeLa cancer cells; assay: MTT antiproliferative activity over the panel of four cancer cell lines; format: cell-based, human; settings: for antiproliferative activity (in words): four cancer cell lines, MTT
Procedure: as §1, §2

[5] = HL-60, 72 h, HL-60, MTT, 72 h, mean ± spread of three experiments, read-out: IC50 value (μM) HL-60

| Compound | IC50 (bovine brain tubulin) | melting point [°C] | other results |
| --- | --- | --- | --- |
| COc1cc(C2=NC(=Cc3cc4ccc(OCc5ccccc5)cc4nc3OC)C(=O)O2)cc(OC)c1OC [Compound 8h, 4-[(7-(Benzyloxy)-2-methoxyquinolin-3-yl)methylene]-2-(3,4,5-trimethoxyphenyl)oxazol-5(4H)-one] |  | 247 to 249 |  |
| COc1cc(C2=NC(=Cc3cc4cc(C)ccc4nc3OC)C(=O)N2)cc(OC)c1OC [Compound 9b, 5-[(2-Methoxy-6-methylquinolin-3-yl)methylene]-2-(3,4,5-trimethoxyphenyl)-3,5-dihydro-4H-imidazol-4-one] |  | 223 to 225 | antiproliferative activity (in words) [4]: potent activity in submicromolar range |
| COc1cc(C2=NC(=Cc3cc4ccc(C)cc4nc3OC)C(=O)N2)cc(OC)c1OC [Compound 9c, 5-[(2-Methoxy-7-methylquinolin-3-yl)methylene]-2-(3,4,5-trimethoxyphenyl)-3,5-dihydro-4H-imidazol-4-one] | 20.2 µM and 20.3 µM | 236 to 238 | IC50 ([4]; Homo sapiens, panel of HL-60, MCF-7, HCT-116, HeLa, read-out: IC50 values across the four cancer cell lines): 22.3 to 73.3 µM; antiproliferative activity (in words) [4]: potent activity in submicromolar range; fold less active than 8c in tubulin polymerization (bovine brain tubulin; versus oxazolone derivative 8c): 16 fold |
| COc1ccc2nc(OC)c(C=C3N=C(c4cc(OC)c(OC)c(OC)c4)NC3=O)cc2c1 [Compound 9e, 5-[(2,6-Dimethoxyquinolin-3-yl)methylene]-2-(3,4,5-trimethoxyphenyl)-3,5-dihydro-4H-imidazol-4-one] | 1.4 µM and 1.48 µM | 253 to 255 | IC50 (HL-60 leukemia cells; [5]): 0.272 ± 0.05 µM; IC50 ([1]; read-out: IC50 in MCF-7): 42.9 nM; IC50 ([2]; 72 h, read-out: IC50 value (μM) HCT-116): 0.085 ± 0.003 µM; IC50 ([3]; read-out: IC50 in HeLa): 62.3 nM |
| COc1ccc2cc(C=C3N=C(c4cc(OC)c(OC)c(OC)c4)NC3=O)c(OC)nc2c1 [Compound 9f, 5-[(2,7-Dimethoxyquinolin-3-yl)methylene]-2-(3,4,5-trimethoxyphenyl)-3,5-dihydro-4H-imidazol-4-one] |  | 241 to 243 | IC50 ([1]; read-out: IC50 in MCF-7): 92.7 nM; IC50 ([2]; read-out: IC50 in HCT-116): 0.188 µM; IC50 ([3]; read-out: IC50 in HeLa): 101 nM |
| COc1cc(C2=NC(=Cc3cc4ccc(OC(C)C)cc4nc3OC)C(=O)N2)cc(OC)c1OC [Compound 9g, 5-((7-Isopropoxy-2-methoxyquinolin-3-yl)methylene)-2-(3,4,5-trimethoxyphenyl)-3,5-dihydro-4H-imidazol-4-one] |  | 238 to 240 |  |
| COc1cc(C2=NC(=Cc3cc4ccc(OCc5ccccc5)cc4nc3OC)C(=O)N2)cc(OC)c1OC [Compound 9h, 5-[(7-(Benzyloxy)-2-methoxyquinolin-3-yl)methylene]-2-(3,4,5-trimethoxyphenyl)-3,5-dihydro-4H-imidazol-4-one] |  | 259 to 261 | IC50 (HL-60 leukemia cells; [5]): 4.93 ± 0.26 µM |

More lines, main results first:

| IC50 (bovine brain tubulin) | melting point [°C] | Compound | other results |
| --- | --- | --- | --- |
| 13.9 µM and 14 µM | 215 to 217 | COc1cc(C2=NC(=Cc3cc4ccccc4nc3OC)C(=O)O2)cc(OC)c1OC [Compound 8a, 4-[(2-Methoxyquinolin-3-yl)methylene]-2-(3,4,5-trimethoxyphenyl)oxazol-5(4H)-one] | fold less active than CA-4 in tubulin assembly (bovine brain tubulin): 4 fold |
|  | 218 to 220 | COc1cc(C2=NC(=Cc3cc4cc(C)ccc4nc3OC)C(=O)O2)cc(OC)c1OC [Compound 8b, 4-[(2-Methoxy-6-methylquinolin-3-yl)methylene]-2-(3,4,5-trimethoxyphenyl)oxazol-5(4H)-one] |  |
|  | 236 to 238 | COc1cc(C2=NC(=Cc3cc4cccc(C)c4nc3OC)C(=O)O2)cc(OC)c1OC [Compound 8d, 4-[(2-Methoxy-8-methylquinolin-3-yl)methylene]-2-(3,4,5-trimethoxyphenyl)oxazol-5(4H)-one] |  |
| 2.2 µM and 2.26 µM | 242 to 244 | COc1ccc2nc(OC)c(/C=C3\N=C(c4cc(OC)c(OC)c(OC)c4)OC3=O)cc2c1 [Compound 8e] | IC50 (HL-60 leukemia cells; HL-60, HL-60, MTT, read-out: IC50 in HL-60 (unit inferred)): 0.0685 µM; IC50 ([1]; read-out: IC50 in MCF-7 (unit inferred)): 56.8 nM; IC50 ([2]; read-out: IC50 in HCT-116 (unit inferred)): 0.0318 µM; IC50 ([3]; read-out: IC50 in HeLa (unit inferred)): 10.1 nM |
|  | 221 to 223 | COc1ccc2cc(C=C3N=C(c4cc(OC)c(OC)c(OC)c4)OC3=O)c(OC)nc2c1 [Compound 8f, 4-[(2,7-Dimethoxyquinolin-3-yl)methylene]-2-(3,4,5-trimethoxyphenyl)oxazol-5(4H)-one] |  |
| 8.23 µM | 227 to 229 | COc1cc(C2=NC(=Cc3cc4ccc(OC(C)C)cc4nc3OC)C(=O)O2)cc(OC)c1OC [Compound 8g, 4-[(7-Isopropoxy-2-methoxyquinolin-3-yl)methylene]-2-(3,4,5-trimethoxyphenyl)oxazol-5(4H)-one] | fold less active than CA-4 in tubulin assembly (bovine brain tubulin): 6 fold |
|  | 230 to 232 | COc1cc(C2=NC(=Cc3cc4ccccc4nc3OC)C(=O)N2)cc(OC)c1OC [Compound 9a, 5-[(2-Methoxyquinolin-3-yl)methylene]-2-(3,4,5-trimethoxyphenyl)-3,5-dihydro-4H-imidazol-4-one] |  |
|  | 233 to 235 | COc1cc(C2=NC(=Cc3cc4cccc(C)c4nc3OC)C(=O)N2)cc(OC)c1OC [Compound 9d, 5-[(2-Methoxy-8-methylquinolin-3-yl)methylene]-2-(3,4,5-trimethoxyphenyl)-3,5-dihydro-4H-imidazol-4-one] | antiproliferative activity (in words) [4]: potent activity in submicromolar range |
